Among the data in ChEMBL document CHEMBL1201862, “PubChem BioAssay data set” (2004) are EC50 and AC50 values, retold here.

Where a name gives a salt, the structure may show the parent alone. Active and inactive are the calls of the source. Rule as the data show it, for most assays here: actives have a measured EC50 and inactives only a lower limit.

The nature of test [1]: inhibitors of intracellular T. cruzi replication, confirmation, NIH3T3 host cells, beta-gal luminescence (AID 2044).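 Also: intracellular parasites grown in NIH/3T3 mouse fibroblasts as host cells; luminescent beta-galactosidase reporter signal from transgenic T. cruzi replicating inside host cells; inhibitors lower the luminescence signal.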 In kind it is functional, cell-based.
Test [2] in a line: cytotoxicity toward NIH3T3 fibroblasts, dose response, counter-screen, cell-based, ATP luminescence, mouse fibroblasts (AID 2010).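 Also: cells exposed to compound for about 90 hours before reading.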 In kind it is functional.
In test [3] the test system is H4. As to the kind of experiment: Luminescence Cell-Based Dose Response HTS to Identify Activators of 5'UTR Stem-Loop Driven Prion Protein mRNA Translation in H4 Neuroglioblastoma Cells. [Related pubchem assays: 1829 (Project Summary), 1814 (Primary HTS)]. The class given is functional. To be noted: Homo sapiens.
The nature of test [4]: Luminescence Cell-Based Dose Response HTS to Identify Activators of Luciferase Translation or Activity in H4 […] Cells. [Related pubchem assays: 1829 (Project Summary), 1814 (Primary HTS)]. The class given is functional.
Test [5] deals with Cytochrome P450 3A4 (Homo sapiens, UniProt P08684).
Chain of Cytochrome P450 3A4 (P08684 whole entry): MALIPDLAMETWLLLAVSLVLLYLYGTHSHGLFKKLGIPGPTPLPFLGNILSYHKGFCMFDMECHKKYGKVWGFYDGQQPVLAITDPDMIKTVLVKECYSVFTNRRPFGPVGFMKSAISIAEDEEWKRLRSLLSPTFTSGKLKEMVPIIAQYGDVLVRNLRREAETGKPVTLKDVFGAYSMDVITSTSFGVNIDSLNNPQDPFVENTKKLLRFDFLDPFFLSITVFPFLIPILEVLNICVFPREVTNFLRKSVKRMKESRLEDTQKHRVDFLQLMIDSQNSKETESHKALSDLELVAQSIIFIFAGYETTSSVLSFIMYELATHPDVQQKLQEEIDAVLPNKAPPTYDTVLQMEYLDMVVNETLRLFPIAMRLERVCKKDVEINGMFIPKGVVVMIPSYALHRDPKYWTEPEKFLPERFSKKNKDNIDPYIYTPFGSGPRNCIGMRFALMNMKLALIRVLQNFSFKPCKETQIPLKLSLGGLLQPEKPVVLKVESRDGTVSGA
In test [6] the target is T1, Cytochrome P450 1A2 (Homo sapiens, UniProt P05177).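 Also: PubChem cytochrome P450 panel assay, CYP1A2 panel member.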
T1 sequence (P05177 whole entry): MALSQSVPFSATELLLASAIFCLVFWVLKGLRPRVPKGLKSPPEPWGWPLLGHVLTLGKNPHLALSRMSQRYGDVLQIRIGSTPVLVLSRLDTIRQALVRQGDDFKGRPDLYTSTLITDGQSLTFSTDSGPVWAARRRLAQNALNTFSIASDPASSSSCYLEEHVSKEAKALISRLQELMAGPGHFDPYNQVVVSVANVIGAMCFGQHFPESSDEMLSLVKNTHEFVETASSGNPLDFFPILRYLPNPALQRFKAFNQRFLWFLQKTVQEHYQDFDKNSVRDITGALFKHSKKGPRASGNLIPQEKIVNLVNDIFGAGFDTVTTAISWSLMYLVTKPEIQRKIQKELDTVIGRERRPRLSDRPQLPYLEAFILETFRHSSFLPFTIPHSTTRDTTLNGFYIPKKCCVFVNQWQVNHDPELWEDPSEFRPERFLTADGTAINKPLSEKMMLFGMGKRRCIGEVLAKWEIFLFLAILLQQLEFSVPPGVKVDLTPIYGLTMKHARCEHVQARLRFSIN

Test [7] can be described thus: Luminescence Cell-Based Dose Confirmation HTS to Identify Activators of 5'UTR Stem-Loop Driven Alpha-Synuclein mRNA Translation in H4 Neuroglioblastoma Cells. [Related pubchem assays: 1829 (Project Summary), 1814 (Primary HTS)]. In kind it is functional.
Test [8] deals with T2, Corticotropin-releasing factor receptor 2/Corticotropin-releasing factor-binding protein (Homo sapiens, UniProt P24387+Q13324).
T2 sequence (Q13324 whole entry): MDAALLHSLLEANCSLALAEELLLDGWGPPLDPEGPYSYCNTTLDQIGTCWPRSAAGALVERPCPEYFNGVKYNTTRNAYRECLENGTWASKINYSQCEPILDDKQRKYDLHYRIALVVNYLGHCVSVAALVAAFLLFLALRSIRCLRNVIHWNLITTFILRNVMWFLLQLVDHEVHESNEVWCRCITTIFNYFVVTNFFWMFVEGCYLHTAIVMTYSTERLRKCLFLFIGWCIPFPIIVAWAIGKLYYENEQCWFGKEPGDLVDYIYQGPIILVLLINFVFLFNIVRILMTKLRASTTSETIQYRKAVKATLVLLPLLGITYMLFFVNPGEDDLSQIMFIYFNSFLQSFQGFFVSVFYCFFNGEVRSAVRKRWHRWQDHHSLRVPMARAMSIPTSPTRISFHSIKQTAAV
T2 sequence (P24387 whole entry): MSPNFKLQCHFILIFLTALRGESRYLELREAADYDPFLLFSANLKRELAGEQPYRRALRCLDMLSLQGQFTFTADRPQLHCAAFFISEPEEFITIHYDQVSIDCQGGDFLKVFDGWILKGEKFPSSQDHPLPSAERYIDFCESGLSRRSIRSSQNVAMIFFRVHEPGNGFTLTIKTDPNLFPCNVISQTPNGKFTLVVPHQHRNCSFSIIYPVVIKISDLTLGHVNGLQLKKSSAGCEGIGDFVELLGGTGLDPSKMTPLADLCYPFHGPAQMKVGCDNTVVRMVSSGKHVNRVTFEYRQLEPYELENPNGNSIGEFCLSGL
As to the kind of experiment: activators of CRF receptor 2 with binding protein – uHTS hits, confirmation (AID 602473). The class given is functional. To be noted: read-out: EC50_Mean.

Consider `Cc1[nH]c2ccc(-c3nnc(SCC(=O)N4CCCc5ccccc54)o3)cc2c1C`, for which the EC50 in test [1] was 782 nM (active); in test [2], > 60 µM (not active). Consider `Cc1ccc(NC(=O)CN2CCCCCC2)c(Br)c1`, for which the EC50 in test [3] is 59.9 µM (active); in test [4], 9.38 µM (active).

For the compound `Clc1ccc(CSc2nnc(-c3ccncc3)s2)cc1`, the EC50 in test [1] was 2140 nM (active); in test [2] it was 26.3 µM (active).

For `Cc1cc(C)c2c(N)c(C(=O)c3ccccc3Cl)sc2n1`, the results for the EC50 in test [1] and in test [2] were 100 nM (active) and > 60 µM (not active), respectively. One may read the AC50 as the concentration giving half of the maximal activity seen. On to `CO[C@@H]1COC(=O)[C@H](COCc2ccccc2)NC(=O)C/C=C\[C@@H](C)[C@H](OC)COC(=O)[C@@H](C)NC(=O)C/C=C\[C@H]1C`, for which, in test [5], the AC50 is 3.16 µM (inconclusive).

As to `Cn1c(C(=O)OC(C(=O)NC2CCCC2)c2cccnc2)cc2sccc21` (stereo unspecified), the EC50 in test [1] is 489 nM (active); in test [2], > 60 µM (not active).

On to `CCN1CCN(c2ccc(S(=O)(=O)N3CCOCC3)cc2NC(=O)CCOc2ccccc2)CC1`, for which the EC50 was 1260 nM (active) in test [1] and > 60 µM (not active) in test [2].

Take `O[C@@H](c1cc(-c2ccccc2)nc2c1ccc1ccccc12)[C@@H]1CCCCN1`: the AC50 in test [6] was 5.01 µM (inconclusive). As for `CO[C@@H]1COC(=O)C/C=C\[C@@H](C)COC(=O)[C@H](Cc2ccccc2)NC(=O)C/C=C\[C@H]1C`, the half-maximal activity concentration (AC50) in test [5] was 1.58 µM (inconclusive). `Cc1ccc(NC2CCCN(C(=O)CSc3ccncc3)C2)cc1C` (stereo unspecified): the EC50 in test [1] was 294 nM (active); in test [2] it was > 60 µM (not active). For `COc1cc2c(cc1OC)[C@@H]1Cc3ccc(OC)c(OC)c3CN1CC2`, the EC50 in test [1] is > 60000 nM (not active); in test [2], > 60 µM (not active).

In the case of `Oc1ccc2c3c1O[C@H]1c4oc5ccccc5c4C[C@]4(O)[C@H](C2)N(CC2CC2)CC[C@@]314`, in test [5], the AC50 was 15.8 µM (inconclusive). In the case of `COc1ccc(C(CNC(=O)c2cc(O)nc3ccccc23)N2CCCC2)cc1` (stereo unspecified), the half-maximal activity concentration (AC50) in test [6] was 20 µM (inconclusive); in test [5], 15.8 µM (inconclusive). Turning to `Cc1ccc(Cl)cc1N1CCN(CC(=O)Nc2ccc(CN3CCCCC3)cc2)CC1`, the EC50 in test [1] was 1310 nM (active); in test [2], > 60 µM (not active).

For the compound `Cc1cccc(CSc2nc3c(cc2C#N)CN(C)CC3)c1`, the EC50 is 156 nM (active) in test [1] and > 30 µM (not active) in test [2]. With `O=c1c(CCc2ccccc2)nc2cnc(N3CCOCC3)nc2n1Cc1ccc(F)cc1`, in test [6], the AC50 is 10 µM (inconclusive). With `Cc1nn(CC(O)COc2ccc3c(c2)CCC3)c(C)c1Br` (stereo unspecified), the AC50 in test [5] is 15.8 µM (inconclusive). `Cc1cccc2sc(N(CCN(C)C)C(=O)C3CCN(S(=O)(=O)c4cccs4)CC3)nc12`: the EC50 is 240 nM (active) in test [1] and > 60 µM (not active) in test [2]. In the same order, the values of `COc1ccc(CNN2CCCCC2C(=O)Nc2ccc(OC)c(OCC(C)C)c2)cc1OC` (stereo unspecified) are > 60000 nM (not active) and > 60 µM (not active). Regarding `Cc1nc2c(ccc3nc(NC(=O)c4ccc5c(c4)OCCO5)sc32)s1`, the EC50 in test [1] is 3070 nM (active); in test [2], > 30 µM (not active). As for `COc1ccc(C(=O)N2CCC3(CCCN(Cc4nccs4)C3)CC2)cc1`, the AC50 in test [5] was 7.94 µM (inconclusive). Regarding `Cn1c(=O)cc(OCCCC(=O)N2CCN(c3ccccc3)CC2)c2ccccc21`, the AC50 in test [6] was 15.8 µM (inconclusive); in test [5], 1.12 µM (inconclusive).

As for `O=C(Nn1cc(C(=O)N2CCN(c3ccccc3F)CC2)c2ccccc2c1=O)c1cnccn1`, the half-maximal activity concentration (AC50) in test [6] is 12.6 µM (inconclusive); in test [5], 28.2 µM (inconclusive). In the case of `O=[N+]([O-])c1cc(-c2n(-c3ccccn3)c3ccccc3[n+]2-c2ccccn2)ccc1Cl`, the results for the EC50 in test [3], in test [7] and in test [4] were > 120 µM (not active), 56.9 µM (active) and 14.2 µM (active), respectively.

As to `O=[N+]([O-])c1cccc(-c2cn(-c3ccccc3)c(S)n2)c1`, the EC50 in test [3] is > 120 µM (not active); in test [7], 5.64 µM (active); in test [4], > 120 µM (not active).

In the case of `CCOC(=O)c1sc(NC(=O)c2cc(-c3ccccc3)nc3ccccc23)c(C#N)c1C`, the EC50 in test [8] is 0.544 µM (active). Take `Cc1nc(-c2ccncc2)nc(NCCNc2ncccc2C(F)(F)F)c1Cl`: the results for the EC50 in test [1] and in test [2] were 364 nM (active) and > 60 µM (not active), respectively. For `Cc1ccc(NC(=O)CCSc2nnc3ccccn23)cc1`, the AC50 in test [5] was 0.891 µM (inconclusive).

`O=C(C[n+]1c2n(c3ccc(C(F)(F)F)cc31)CCCCC2)c1ccc2c(c1)OCCO2`: the EC50 in test [1] is 1300 nM (active); in test [2], > 60 µM (not active).

As for `CC(=O)Nc1cccc(OC(=O)c2ccoc2C)c1`, in test [8], the EC50 is 4.9 µM (active).

As to `CN(C(=O)c1ccc(S(=O)(=O)NC2CCCC2)cc1)C1CCCCC1`, the EC50 in test [8] is > 53 µM (inactive). On to `O=C(Nc1ccc(SC(F)F)cc1)c1ccc2c(=O)n3c(nc2c1)CCC3`, for which the EC50 in test [8] is 1.4 µM (active). Regarding `C=CCN1C(=O)NC(=O)/C(=C/c2cccn2C)C1=O`, the AC50 in test [6] was 15.8 µM (inconclusive). For the compound `O=C(CSc1nnc(-c2ccc(F)cc2)c2ccccc12)Nc1cccc(Cl)c1`, the results for the EC50 in test [1] and in test [2] were 2160 nM (active) and > 30 µM (not active), respectively.

Turning to `CN1CCN(CCCc2c3c(cc4c2CCC4)CCC3)CC1`, the EC50 in test [1] was 601 nM (active); in test [2], > 60 µM (not active). In the same order, the values of `CCOC(=O)c1sc2ncnc(N3CCN(CC)CC3)c2c1C` are 577 nM (active) and > 60 µM (inconclusive). In the same order, the values of `c1cncc(-c2nc(NCc3ccc4c(c3)OCO4)c3ccccc3n2)c1` are 921 nM (active) and > 30 µM (not active). For the compound `CCOC(=O)N1CC=C2C(C#N)=C(N)C(C#N)(C#N)[C@H](c3ccccc3OCC)[C@H]2C1`, the EC50 in test [3], in test [7] and in test [4] was > 120 µM (not active) each time. For the compound `CN(C)c1ncc2nc(-c3ccc(F)cc3)c(=O)n(Cc3cccs3)c2n1`, the AC50 in test [5] was 25.1 µM (inconclusive). For `Cc1ccc(S(=O)(=O)Nc2cccc(C(=O)NC3CCN(Cc4ccccc4)CC3)c2)cc1F`, the results for the EC50 in test [1] and in test [2] were 1120 nM (active) and > 60 µM (not active), respectively. Take `NC(=O)c1c(NC(=O)CCCn2cnc([N+](=O)[O-])n2)sc2c1CCCC2`: the EC50 in test [1] was 125 nM (active); in test [2], > 60 µM (not active). For `CCc1ccc(N2CC(C(=O)NC3=NCCS3)CC2=O)cc1` (stereo unspecified), the half-maximal activity concentration (AC50) in test [6] was 20 µM (inconclusive). Same read-out and setting: with `N=C(N)NC(=O)c1nc(Cl)c(N)nc1N` [AMILORIDE HYDROCHLORIDE] the figure was 6.31 µM (inconclusive); with `CNCCC=C1c2ccccc2CCc2ccccc21` [NORTRIPTYLINE], 25.1 µM (inconclusive). For the compound `CS(=O)(=O)Nc1ccc([N+](=O)[O-])cc1OC1CCCCC1` [NS-398], the half-maximal activity concentration (AC50) in test [5] was 20 µM (inconclusive). On to `C[C@@H](C(=O)O)c1ccc(-c2ccccc2)c(F)c1` [TARENFLURBIL], for which the half-maximal activity concentration (AC50) in test [6] is 31.6 µM (inconclusive).
